{"source": "paper PMC5118716", "about": "“Structural basis of TRPA1 inhibition by HC-030031 utilizing species-specific differences” (Scientific Reports, 2016)", "assay_in_all_cases": "two-electrode voltage clamp, X. laevis oocytes", "format_in_all_cases": "cell-based", "key": {"fTRPA1 [1]": {"target": "T1, fTRPA1 (Xenopus tropicalis, UniProt A0A8J0QD66)", "T1 construct": "gene trpa1; full-length wild type (1144 residues); X. laevis oocytes (cRNA)", "T1 sequence (A0A8J0QD66 1-1144)": "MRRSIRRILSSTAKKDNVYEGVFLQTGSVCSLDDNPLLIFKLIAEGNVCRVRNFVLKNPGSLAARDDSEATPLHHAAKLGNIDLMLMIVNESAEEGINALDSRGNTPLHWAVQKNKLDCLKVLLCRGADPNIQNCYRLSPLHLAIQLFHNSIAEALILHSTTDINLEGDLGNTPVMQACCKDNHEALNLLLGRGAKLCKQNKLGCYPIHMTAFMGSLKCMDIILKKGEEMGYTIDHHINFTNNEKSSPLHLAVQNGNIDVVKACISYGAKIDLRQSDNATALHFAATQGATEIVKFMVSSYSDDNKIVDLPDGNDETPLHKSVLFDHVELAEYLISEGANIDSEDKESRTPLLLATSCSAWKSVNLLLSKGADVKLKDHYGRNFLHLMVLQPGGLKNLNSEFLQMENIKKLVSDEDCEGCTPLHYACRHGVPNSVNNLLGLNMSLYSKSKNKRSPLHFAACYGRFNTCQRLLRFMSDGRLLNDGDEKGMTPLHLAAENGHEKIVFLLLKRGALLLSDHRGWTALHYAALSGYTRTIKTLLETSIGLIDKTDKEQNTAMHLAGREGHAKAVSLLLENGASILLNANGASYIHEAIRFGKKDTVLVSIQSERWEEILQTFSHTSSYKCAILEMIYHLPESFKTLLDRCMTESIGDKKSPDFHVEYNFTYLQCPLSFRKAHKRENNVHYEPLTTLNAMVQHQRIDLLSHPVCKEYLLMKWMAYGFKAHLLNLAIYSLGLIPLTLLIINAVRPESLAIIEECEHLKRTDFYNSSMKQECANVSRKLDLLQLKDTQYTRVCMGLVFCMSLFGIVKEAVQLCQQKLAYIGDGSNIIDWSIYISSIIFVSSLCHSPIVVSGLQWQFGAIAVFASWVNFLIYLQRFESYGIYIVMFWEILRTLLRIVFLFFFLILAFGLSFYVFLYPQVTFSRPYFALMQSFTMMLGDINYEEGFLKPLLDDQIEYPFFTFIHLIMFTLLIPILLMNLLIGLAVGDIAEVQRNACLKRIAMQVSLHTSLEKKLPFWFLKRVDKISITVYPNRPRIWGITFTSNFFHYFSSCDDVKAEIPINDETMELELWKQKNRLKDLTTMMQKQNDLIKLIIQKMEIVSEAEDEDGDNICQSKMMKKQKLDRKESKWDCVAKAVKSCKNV", "conditions": "agonist"}, "fTRPA1 [2]": {"target": "T2, fTRPA1 (Xenopus tropicalis, UniProt A0A8J0QD66, S880N)", "T2 construct": "gene trpa1; full-length wild type (1144 residues); X. laevis oocytes (cRNA)", "T2 sequence (A0A8J0QD66 1-1144 S880N)": "T1 sequence (A0A8J0QD66 1-1144) with S880N", "conditions": "antagonist; vs 0.5 mM CA; pH 7.4, 1.8 mM CaCl2, -60 mV"}, "hTRPA1 [3]": {"target": "T3, hTRPA1 (Homo sapiens, UniProt O75762, N855S)", "T3 construct": "gene TRPA1; full-length wild type (1119 residues); X. laevis oocytes (cRNA) or HEK293T cells (pcDNA3.1)", "T3 sequence (O75762 whole entry N855S)": "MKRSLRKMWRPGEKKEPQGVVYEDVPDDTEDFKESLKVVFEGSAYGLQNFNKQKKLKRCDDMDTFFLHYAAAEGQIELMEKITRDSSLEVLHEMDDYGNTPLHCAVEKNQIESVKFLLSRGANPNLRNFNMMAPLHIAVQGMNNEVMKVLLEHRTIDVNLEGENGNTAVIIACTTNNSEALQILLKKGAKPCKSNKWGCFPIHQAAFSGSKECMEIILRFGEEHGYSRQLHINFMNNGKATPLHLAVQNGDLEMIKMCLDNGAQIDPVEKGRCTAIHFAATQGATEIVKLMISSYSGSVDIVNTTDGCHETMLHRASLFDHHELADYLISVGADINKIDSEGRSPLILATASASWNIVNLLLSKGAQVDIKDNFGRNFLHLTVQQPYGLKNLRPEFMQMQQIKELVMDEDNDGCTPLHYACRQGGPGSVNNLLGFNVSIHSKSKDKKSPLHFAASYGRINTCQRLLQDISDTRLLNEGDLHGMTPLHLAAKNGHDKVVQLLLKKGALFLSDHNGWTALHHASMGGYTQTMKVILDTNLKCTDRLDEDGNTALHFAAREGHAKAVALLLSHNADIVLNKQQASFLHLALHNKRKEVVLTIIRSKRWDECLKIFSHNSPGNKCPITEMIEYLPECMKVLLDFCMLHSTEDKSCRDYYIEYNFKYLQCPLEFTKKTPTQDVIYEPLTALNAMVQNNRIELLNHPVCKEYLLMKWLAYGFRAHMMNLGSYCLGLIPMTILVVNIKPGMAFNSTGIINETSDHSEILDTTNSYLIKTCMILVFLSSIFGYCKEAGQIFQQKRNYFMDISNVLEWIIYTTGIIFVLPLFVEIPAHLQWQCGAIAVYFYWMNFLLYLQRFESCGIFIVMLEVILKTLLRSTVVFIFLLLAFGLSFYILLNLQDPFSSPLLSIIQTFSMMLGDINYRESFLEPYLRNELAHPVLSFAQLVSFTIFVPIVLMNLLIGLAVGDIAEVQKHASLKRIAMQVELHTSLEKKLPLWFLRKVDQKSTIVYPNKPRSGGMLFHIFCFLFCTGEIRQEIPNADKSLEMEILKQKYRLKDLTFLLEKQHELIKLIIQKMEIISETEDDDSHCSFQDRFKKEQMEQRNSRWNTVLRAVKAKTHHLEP", "conditions": "antagonist; vs 0.3 mM CA; pH 7.4, 1.8 mM CaCl2, -60 mV"}, "zTRPA1b": {"target": "T4, zTRPA1b (Danio rerio, UniProt A0A8M1N2Z4, R860N)", "T4 construct": "gene trpa1b; full-length; X. laevis oocytes (cRNA)", "T4 sequence (A0A8M1N2Z4 1-1120 R860N)": "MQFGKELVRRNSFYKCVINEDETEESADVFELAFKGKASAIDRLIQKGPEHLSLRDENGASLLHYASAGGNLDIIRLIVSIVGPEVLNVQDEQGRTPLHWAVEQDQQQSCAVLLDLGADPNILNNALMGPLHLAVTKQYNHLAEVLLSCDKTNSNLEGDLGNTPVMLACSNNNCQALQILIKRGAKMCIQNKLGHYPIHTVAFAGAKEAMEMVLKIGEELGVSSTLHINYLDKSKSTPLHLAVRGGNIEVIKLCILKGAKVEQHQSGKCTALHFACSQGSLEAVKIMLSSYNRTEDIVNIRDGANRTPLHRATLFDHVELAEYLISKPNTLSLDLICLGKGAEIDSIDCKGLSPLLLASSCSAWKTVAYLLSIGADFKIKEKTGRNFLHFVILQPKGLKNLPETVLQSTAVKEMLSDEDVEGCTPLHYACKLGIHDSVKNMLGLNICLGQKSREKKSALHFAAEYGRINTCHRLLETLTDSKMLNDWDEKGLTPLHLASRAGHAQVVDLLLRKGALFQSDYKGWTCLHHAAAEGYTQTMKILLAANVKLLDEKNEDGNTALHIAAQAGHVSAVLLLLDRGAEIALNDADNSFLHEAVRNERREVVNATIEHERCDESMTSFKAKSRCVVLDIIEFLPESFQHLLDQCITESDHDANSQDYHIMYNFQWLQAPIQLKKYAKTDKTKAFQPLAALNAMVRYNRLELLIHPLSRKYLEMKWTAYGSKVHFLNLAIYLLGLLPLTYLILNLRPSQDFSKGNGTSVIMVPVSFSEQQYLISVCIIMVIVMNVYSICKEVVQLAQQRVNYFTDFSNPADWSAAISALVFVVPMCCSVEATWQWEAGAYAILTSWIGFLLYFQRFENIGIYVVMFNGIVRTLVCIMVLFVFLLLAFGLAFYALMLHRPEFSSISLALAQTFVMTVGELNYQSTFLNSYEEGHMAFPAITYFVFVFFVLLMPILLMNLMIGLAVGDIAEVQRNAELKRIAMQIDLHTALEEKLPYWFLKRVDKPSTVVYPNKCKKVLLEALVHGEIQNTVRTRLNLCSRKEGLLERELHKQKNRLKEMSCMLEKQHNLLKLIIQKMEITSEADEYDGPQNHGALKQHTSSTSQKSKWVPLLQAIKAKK", "conditions": "antagonist; vs 1 mM CA; pH 7.4, 1.8 mM CaCl2, -60 mV"}, "hTRPA1 [4]": {"target": "T5, hTRPA1 (Homo sapiens, UniProt O75762)", "T5 construct": "gene TRPA1; full-length wild type (1119 residues); X. laevis oocytes (cRNA) or HEK293T cells (pcDNA3.1)", "T5 sequence (O75762 whole entry)": "as the sequence (O75762 whole entry N855S) above, with S855N counted along it", "conditions": "agonist, non-electrophilic; pH 7.4, -60 mV"}}, "note": "Positions count from the first letter of the chain named."}
{"smiles": "O=CC=Cc1ccccc1", "note": "[CA, cinnamaldehyde]", "values": [{"measurement": "two-electrode voltage clamp, X. laevis oocytes", "setting": "fTRPA1 [1]; 0.5 mM, covalent, pH 7.4, 1.8 mM CaCl2, -60 mV", "value": "TRPA1-mediated currents were activated by CA with approximately similar amplitude"}]}
{"smiles": "CC(C)c1ccc(NC(=O)Cn2cnc3c2c(=O)n(C)c(=O)n3C)cc1", "note": "[HC, HC-030031]", "values": [{"measurement": "inhibition at 50 μM", "setting": "fTRPA1 [2]", "value": "HC reduced the CA-evoked currents in the second application in fTRPA1-S880N"}, {"measurement": "inhibition at 50 μM", "setting": "hTRPA1 [3]", "value": "hTRPA1-N855S showed significantly less sensitivity to HC than wt-hTRPA1 at all concentrations examined"}, {"measurement": "inhibition at 50 μM", "setting": "zTRPA1b", "value": "significant reduction in current amplitudes in zTRPA1-R860N although wt-zTRPA1b showed no inhibition"}]}
{"smiles": "Cc1ccc(C(C)C)cc1O", "note": "[carvacrol]", "values": [{"measurement": "two-electrode voltage clamp, X. laevis oocytes", "setting": "fTRPA1 [1]; non-electrophilic, pH 7.4, -60 mV", "value": "hTRPA1 and fTRPA1 currents activated by the non-electrophilic compound carvacrol"}, {"measurement": "two-electrode voltage clamp, X. laevis oocytes", "setting": "hTRPA1 [4]", "value": "hTRPA1 and fTRPA1 currents activated by the non-electrophilic compound carvacrol"}]}
